Values after ≈ are worked out from the molar mass of the structure shown.
System: ADP-induced aggregation of human platelets
Type: cell-based
Conditions: Table 1; human platelet rich plasma; ADP 0.5 mcg/mL; read-out: Inhibition of Human Platelet Aggregation IC50 vs. ADP
Protocol: The aggregometer method of Born, C. […] Clin. Med. 1964, 64, 548-599 was used to assess the in vitro activity of the various compounds as to the inhibition of adenosine diphosphate (ADP) and collagen-induced platelet aggregation. The human volunteer donor's arm is cleansed with 70% ethyl alcohol. A sterile 20 ml syringe and needle are used to withdraw 20 ml of blood. The blood is immediately added to a test tube containing 3.8% sodium citrate to prevent clotting (1 part citrate to 9 parts blood).
Platelet rich plasma (PRP) was separated by centrifugation for 10 minutes at 1000 rpm (140 xg) from citrated (3.8%) human blood. All glassware used for preparation of PRP is silicon treated. ADP in final concentration of 0.5 mcg/mL or 0.05 mL of a collagen suspension prepared according to the method described by Evans, G., et al., J. Exp. Med., 1968, 128, 877-894 was used to induce aggregation. The various compounds tested were dissolved in dimethylsulfoxide (DMSO) so that 5 mcl added to the platelet rich plasma would yield the desired test concentration. Vehicle control trials were done and compared with aggregation induced in platelet rich plasma containing various concentrations of the test compounds. Dose response curves were obtained and Inhibitor Concentration (IC50) values calculated.

Work on `COC(=O)CCCCCCCCN1C(=O)C(c2ccccc2)N(c2ccccc2)C1=O` (centres unmarked) [Example 1, methyl 2,5-dioxo-3,4-diphenyl-1-imidazolidinenonanoate] yielded an IC50 of 32 µg/mL (≈ 75.7 µM).

Work on `O=C(O)CCCCCCCCN1C(=O)C(c2ccccc2)N(c2ccccc2)C1=O` (centres unmarked) [Example 2, 2,5-dioxo-3,4-diphenyl-1-imidazolidinenonanoic acid] yielded an IC50 of 11.9 µg/mL (≈ 29.1 µM).
